Laboratory results taken from patent EP4610269A1, “UROKINASE PLASMINOGEN ACTIVATOR SURFACE RECEPTOR (UPAR) LIGANDS FOR DIAGNOSTIC OR THERAPEUTIC USE” (3B Pharmaceuticals GmbH, priority 2024, dated 2025).
Where two headings read alike, the source gives them in different places. Where a SMILES comes first, the peptide text is derived from it. Bridges are numbered along the chain shown (N, C = ends). [ ]: non-standard residue; d: D form. The star is where a group is joined. GdDOTA = Gd(III) DOTA conjugate, O=C([O-])CN1CCN(CC(=O)[O-])CCN(CC(=O)*)CCN(CC(=O)[O-])CC1.[Gd+3]; DOTA = O=C(O)CN1CCN(CC(=O)O)CCN(CC(=O)*)CCN(CC(=O)O)CC1; Phe(4-Cl) = N[C@@H](Cc1ccc(Cl)cc1)C(=O)O; Pro(cis-4-F) = O=C(O)[C@@H]1C[C@H](F)CN1; Dopa = N[C@@H](Cc1ccc(O)c(O)c1)C(=O)O; Hyp = O=C(O)[C@@H]1C[C@@H](O)CN1; dCit = NC(=O)NCCC[C@@H](N)C(=O)O; Pentanoyl(4-Me) = CC(C)CCC(=O)*; Cit = NC(=O)NCCC[C@H](N)C(=O)O; Butoxycarbonyl = CCCCOC(=O)*; Nva = CCC[C@H](N)C(=O)O; Pentanoyl = CCCCC(=O)*

Tests used:
human uPAR (uPAR-Fc) = target: T1, human uPAR (uPAR-Fc) (Homo sapiens, UniProt Q03405); test: Surface plasmon resonance (SPR) assay, single cycle kinetics; type: binding; details: pKD category for uPAR SPR activity assay, uPAR-Fc on Protein A-Chip, 25°C, read-out: pKD CAT (converted)
T1 construct: comprising amino acids Leu23-Arg303 according to UniProt entry Q03405.1; purchased R&D Systems 10378-UK-100
Summary of the method: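 uPAR-Fc (Leu23-Arg303 extracellular domains, human IgG1 Fc) captured on Protein A chip to ~2000 RU; single-cycle kinetics at 25°C in HEPES running buffer pH 7.4 with 0.1% DMSO. KD from double-referenced sensorgrams fitted to 1:1 Langmuir model, reported as pKD.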

[1] = target: T2, Recombinant soluble human NEP (Homo sapiens, UniProt P08473); test: Proteolytic stability assay against NEP; type: in vitro ADME; details: human NEP 100 ng/mL, compound 10 µM, 37°C, LC-MS quantification; for remaining at 24 h, 10 µM: recombinant soluble human NEP, read-out: % intact compound remaining after 24h incubation
T2 construct: Recombinant soluble human NEP; purchased BioTechne, Wiesbaden, Germany
Experimental: To assess the stability of compounds against NEP, the compounds were subjected to an in vitro assay based on the protocol described by Edelson et al. (Edelson, Makhlina et al. 2013).
Recombinant soluble human NEP (BioTechne, Wiesbaden, Germany) at a concentration of 100 ng/mL was mixed with the compound (10 µM) and a stable internal standard (10 µM) and incubated at 37°C. After several time points, samples were taken and analyzed with LC-MS.
The determination of the analyte in the clean sample solutions was performed on an Agilent 1290 UHPLC system coupled to an Agilent 6530 Q-TOF mass spectrometer. The chromatographic separation was carried out on a Phenomenex BioZen XB-C18 HPLC column (50 × 2 mm, 1.7 µm particle size) with gradient elution using a mixture of 0.1% formic acid in water as eluent A and acetonitrile as eluent B (2% B to 41% in 7 min, 800 µl/min, 40°C). Mass spectrometric detection was performed in positive ion ESI mode by scanning the mass range from m/z 50 to 3000 with a sampling rate of 2 / sec.
(§1) From the mass spectrometric raw data the ion currents for the double or triple charged monoisotopic signal was extracted for both, the compound and the internal standard.
(§2) Quantitation was performed by external matrix calibration with internal standard using the integrated analyte signals.
The activity of NEP was examined using a commercially available chromogenic substrate of NEP.
(§3) The result is stated as "% intact compound remaining after 24 h incubation" and means that from the amount of material at the start of the experiment the stated percentage is detected as unchanged material at the end of the experiment by LC-MS quantification. Since all compounds are more than 50% intact after 24 h they are considered as stable enough for diagnostic and therapeutic applications. Table 14: Results of the NEP stability assay

[2] = target: T3, uPAR-expressing HEC-265 human endometrial adenocarcinoma cells (Homo sapiens, UniProt Q03405); test: Competitive FACS binding assay; details: pIC50 category of FACS binding
T3 construct: Cell surface uPAR-expressing HEC-265 human endometrial adenocarcinoma cells; host or cells: HEC-265
Summary of the method: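 Competitive displacement of a 10 nM biotinylated peptide from HEC-265 cells (1 h, 4 °C, PBS/1% BSA), detected via APC-streptavidin by flow cytometry. pIC50 from four-parameter logistic fit of median fluorescence versus concentration.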

[3] = Plasma stability assay (mouse plasma); type: in vitro ADME; details: 37°C, LC-MS quantification
Experimental: (§4) In order to determine the stability of selected compounds of the invention in human and mouse plasma, a plasma stability assay was carried out. Such plasma stability assay measures degradation of compounds of the present invention in blood plasma. This is an important characteristic of a compound as compounds, with the exception of pro-drugs, which rapidly degrade in plasma, generally show poor in vivo efficacy. […] The stability is sufficient for the diagnostic, therapeutic and theragnostic use of these compounds according to the present invention.
(§5) The plasma stability samples were prepared by spiking 50 µl plasma aliquots (all sodium citrate 3.7%) with 1 µl of a 0.5 mM compound stock solution in DMSO. After vortexing the samples were incubated in a Thermomixer at 37°C for 0 and 6 hours. After incubation the samples were stored on ice until further treatment. All samples were prepared in duplicates.
A suitable internal standard was added to each sample (1 µl of a 0.5 mM stock solution in DMSO). Protein precipitation was performed using two different methods depending on the compound conditions as indicated in Table 13. • A) 250 µl of acetonitrile containing 1% trifluoroacetic acid was added. After incubation at room temperature for 30 min the precipitate was separated by centrifugation and 150 µl of the supernatant was diluted with 150 µl of 1% aqueous formic acid. • B) 150 µl of a zinc sulphate precipitation agent containing 78% 0.1 M zinc sulphate and 22% acetonitrile was added. After incubation at room temperature for 30 min the precipitate was separated by centrifugation. To 100 µl of the supernatant 10 µl of 1% formic acid was added followed by further incubation at 60°C for 10 min to complete the formation of the zinc chelate, if the compound contains a free DOTA moiety.
The determination of the analyte in the clean sample solutions was performed on an Agilent 1290 UHPLC system coupled to an Agilent 6530 Q-TOF mass spectrometer. The chromatographic separation was carried out on a Phenomenex BioZen XB-C18 HPLC column (50 x 2 mm, 1.7 µm particle size).
Two different elution gradients were applied using a mixture of 0.1% formic acid in water as eluent A and acetonitrile as eluent B: • A) 2% B to 41% in 7 min, 800 µl/min, 40°C. • B) 5% B to 50% B in 6 min, 800 µL/min, 40°C.
Mass spectrometric detection was performed in positive ion ESI mode by scanning the mass range from m/z 50 to 3000 with a sampling rate of 2 / sec.
as §1, §2
(§6) Additionally, recovery was determined by spiking a pure plasma sample that only contained the internal standard after treatment with a certain amount of the compound.
(§7) Carry-over was evaluated by analysis of a blank sample (20% acetonitrile) after the highest calibration sample.
as §3, with “6” for “24”, “13:” for “14:”, “plasma” for “NEP”

[4] = Plasma stability assay (human plasma); type: in vitro ADME; details: human plasma (sodium citrate 3.7%), 37°C, LC-MS quantification, read-out: % intact compound remaining after 6h incubation Human plasma
Experimental: as §4, §5
A suitable internal standard was added to each sample (1 µl of a 0.5 mM stock solution in DMSO). Protein precipitation was performed using two different methods depending on the compound conditions as indicated in Table 13. • A) 250 µl of acetonitrile containing 1% trifluoroacetic acid was added. […]
as §2, §6, §7
The result is stated as "% intact compound remaining after 6 h incubation" and means that from the amount of material at the start of the experiment the stated percentage is detected as unchanged material at the end of the experiment by LC-MS quantification. […]

T1 sequence (Q03405 23-303): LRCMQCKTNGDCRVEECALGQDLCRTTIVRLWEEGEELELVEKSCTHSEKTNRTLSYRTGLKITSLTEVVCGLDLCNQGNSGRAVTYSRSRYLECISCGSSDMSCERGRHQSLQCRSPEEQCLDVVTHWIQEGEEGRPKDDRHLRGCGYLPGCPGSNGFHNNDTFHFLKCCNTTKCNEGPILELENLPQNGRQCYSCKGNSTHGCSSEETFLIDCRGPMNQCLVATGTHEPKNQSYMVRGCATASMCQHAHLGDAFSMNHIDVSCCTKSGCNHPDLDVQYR
T2 sequence (P08473 52-750 limits assumed): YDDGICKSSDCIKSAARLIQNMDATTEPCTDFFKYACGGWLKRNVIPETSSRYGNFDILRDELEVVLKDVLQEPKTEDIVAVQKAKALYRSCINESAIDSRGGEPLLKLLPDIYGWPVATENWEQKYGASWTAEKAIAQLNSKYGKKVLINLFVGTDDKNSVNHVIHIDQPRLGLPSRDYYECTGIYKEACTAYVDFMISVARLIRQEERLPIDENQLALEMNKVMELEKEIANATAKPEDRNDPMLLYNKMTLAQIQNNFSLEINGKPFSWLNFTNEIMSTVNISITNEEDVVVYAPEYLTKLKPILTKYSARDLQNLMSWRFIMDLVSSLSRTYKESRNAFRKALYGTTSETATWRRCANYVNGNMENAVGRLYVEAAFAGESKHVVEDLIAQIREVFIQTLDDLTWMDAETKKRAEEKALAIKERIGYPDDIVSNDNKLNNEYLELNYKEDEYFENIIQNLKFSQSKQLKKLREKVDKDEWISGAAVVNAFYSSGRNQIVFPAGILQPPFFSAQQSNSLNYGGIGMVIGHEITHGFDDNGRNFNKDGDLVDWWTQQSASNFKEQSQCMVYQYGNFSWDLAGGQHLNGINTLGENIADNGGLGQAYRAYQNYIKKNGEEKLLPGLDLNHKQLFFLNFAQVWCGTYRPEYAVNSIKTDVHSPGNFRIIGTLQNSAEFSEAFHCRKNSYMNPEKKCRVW
T3 sequence (Q03405 23-335): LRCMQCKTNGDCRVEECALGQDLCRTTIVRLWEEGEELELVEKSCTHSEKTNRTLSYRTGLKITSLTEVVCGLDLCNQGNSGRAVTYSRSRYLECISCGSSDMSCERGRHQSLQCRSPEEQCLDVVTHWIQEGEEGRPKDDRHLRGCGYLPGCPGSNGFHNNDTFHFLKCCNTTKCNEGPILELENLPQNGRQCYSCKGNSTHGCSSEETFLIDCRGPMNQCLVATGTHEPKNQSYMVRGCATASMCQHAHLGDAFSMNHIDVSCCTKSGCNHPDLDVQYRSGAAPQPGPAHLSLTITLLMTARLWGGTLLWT

| Compound | Kd (human uPAR (uPAR-Fc); single cycle kinetics) | remaining at 24 h, 10 µM [1] | IC50 [2] | % intact compound remaining after 24h incubation [1] | pIC50 CAT [2] | % intact compound remaining after 6h incubation Mouse plasma ([3]; mouse plasma (sodium citrate)) | Kd (human uPAR (uPAR-Fc)) | remaining at 6 h, 9.8 µM [4] | remaining at 6 h, 9.8 µM ([3]; mouse plasma (sodium citrate 3.7%), read-out: % intact compound remaining after 6h incubation Mouse plasma) |
| --- | --- | --- | --- | --- | --- | --- | --- | --- | --- |
| CC[C@H](C)[C@@H]1NC(=O)[C@@H](C)NC(=O)[C@@H]2CCCN2C(=O)[C@H](Cc2ccccc2)NC(=O)[C@H](Cc2ccc(O)cc2)NC(=O)[C@H](CCC(N)=O)NC(=O)[C@@H](CCCNC(N)=O)NC(=O)[C@@H](NC(=O)CCC(C)C)CSSC[C@@H](C(N)=O)NC(=O)[C@H](CC(C)C)NC1=O [UPAR-364, iHex-[Cys-cit-Gln-Tyr-Phe-Pro-ala-Ile-Leu-Cys]-NH2] ({Pentanoyl(4-Me)}-C[dCit]QYFP[dA]ILC-NH2; disulfide 1-10) | > 100 nM | > 95% | ≥ 126 nM |  |  |  |  |  |  |
| iHex-[Cys-Cit-Lys(GdDOTA)-Tyr-Phe-Pro-ala-Ile-Leu-Cys]-NH2 ({Pentanoyl(4-Me)}-C[Cit]K(GdDOTA)YFP[dA]ILC-NH2; disulfide 1-10 (inferred); not fully specified) [UPAR-463] |  |  |  | 88% | A (pIC50 values ≥8.0) | 81% |  |  |  |
| CCCCC(=O)N[C@H]1CSSC[C@@H](C(N)=O)NC(=O)[C@H](CCC)NC(=O)[C@H]([C@@H](C)CC)NC(=O)[C@@H]2C[C@@H](O)CN2C(=O)[C@@H]2CCCN2C(=O)[C@H](Cc2ccc(Cl)cc2)NC(=O)[C@H](Cc2ccc(O)cc2)NC(=O)[C@H](CCCCNC(=O)CN2CCN(CC(=O)O)CCN(CC(=O)O)CCN(CC(=O)O)CC2)NC(=O)[C@H](CCCNC(N)=O)NC1=O [UPAR-233, Pent-[Cys-Cit-Lys(DOTA)-Tyr-Pcf-Pro-Hyp-Ile-Nva-Cys]-NH2] (Pentanoyl-C[Cit]K(DOTA)Y[Phe(4-Cl)]P[Hyp]I[Nva]C-NH2; disulfide 1-10) |  | > 95% | ≤ 10 nM |  |  |  | < 1.58 nM |  |  |
| CCCCOC(=O)N[C@H]1CSSC[C@@H](C(N)=O)NC(=O)[C@H](CCC)NC(=O)[C@H]([C@@H](C)CC)NC(=O)[C@@H]2C[C@@H](O)CN2C(=O)[C@@H]2C[C@H](F)CN2C(=O)[C@H](Cc2ccccc2)NC(=O)[C@H](Cc2ccc(O)c(O)c2)NC(=O)[C@H](CCCCNC(=O)CN2CCN(CC(=O)O)CCN(CC(=O)O)CCN(CC(=O)O)CC2)NC(=O)[C@H]([C@@H](C)O)NC1=O [UPAR-249, Butoc-[Cys-Thr-Lys(DOTA)-Dopa-Phe-4Cfp-Hyp-Ile-Nva-Cys]-NH2] (Butoxycarbonyl-CTK(DOTA)[Dopa]F[Pro(cis-4-F)][Hyp]I[Nva]C-NH2; disulfide 1-10) |  |  | ≤ 10 nM |  |  |  | < 1.58 nM | 64% | 22% |
